Laboratory results: a melting point compilation (Tetko et al.; mined from patent text by program, amines drawn as free bases though some values may be those of a salt)

Structure (SMILES) | melting point
COc1ccc(C2CNC(=O)C2)cc1OCC(O)CN1CCN(c2ccccc2)CC1 (stereo not given) | 143 to 144 °C
COC(=O)C=Cc1ccc(C(=O)Nc2ccncc2)cc1 | 209 to 211 °C
O=c1ccn(-c2cccc(C(F)(F)F)c2)nc1-c1ccnn1-c1ccccc1 | 156 to 157 °C
CC(C)c1c(C=O)c(-c2ccc(F)cc2)n2ccccc12 | 97 to 98 °C
COC(=O)c1ccc([N+](=O)[O-])cc1S(=O)(=O)O | 92 to 94 °C
CCOC(=O)/C=C/c1ccc(O)cc1OCc1ccccc1 | 131 to 133 °C
COc1cc(OC)nc(-c2ccc(-c3ccccc3S(=O)(=O)Nc3onc(C)c3C)cc2)n1 | 83 to 93 °C
Cn1nc(SC2c3cc(C#N)ccc3CC(C)(C)C2O)ccc1=O (stereo not given) | 149 to 151 °C
COC(=O)c1sccc1NS(=O)(=O)c1nc2nc(C3CC3)cc(C)n2n1 | 133 to 134 °C
C[C@@H]1CN(C(=O)OC(C)(C)C)C[C@H]2Cc3cc(Br)c(CO)nc3N21 | 110 to 112 °C
Cc1cn2c(=O)c3c(Cl)cccc3nc2s1 | 235 to 236 °C
CCC(C(=O)C(C)C(O)C(C)CCc1c(N=Nc2ccccc2)cc(C)c(O)c1C(=O)O)C1OC(CC)(C2CCC(O)(CC)C(C)O2)CC1C (stereo not given) | 212 to 215 °C
OCC1OC(n2cnc3c(NC4C=CCC4O)ncnc32)C(O)C1O (stereo not given) | 212 to 214 °C
C1=C(c2ccc3ccccc3c2)CCN(Cc2c[nH]c3ncccc23)C1 | 223 to 225 °C
C=Cc1nn(Cc2ccc(C(=O)OC)cc2OC)c2cc(C(=O)NCC3CCCC3)ccc12 | 138 to 140 °C
CCOC(=O)NN=C(c1ccc(Cl)cc1)c1ccc(OC(=O)CC)cc1 | 120 to 146 °C
CC(=O)c1ccc(-c2ccc(F)cc2)c(N)c1 | 88 to 91 °C
CCOc1ccc2[nH]cc(C(=O)NCc3ccccn3)c(=O)c2c1 | 222 to 224 °C
Cc1cc(O)c(C23CC4CC(CC(C4)C2)C3)cc1Br | 155 to 156 °C
CC(=O)NC(=N)NCC1CC2c3cccc4[nH]cc(c34)CC2N(C)C1 (stereo not given) | 218 to 220 °C
COc1cc(Nc2c(C#N)cnc3cc(/C=C/CCO)c(OC)cc23)c(Cl)cc1Cl | 186 to 188 °C
CCNc1ccc2[nH]cc(C3CCN(C)CC3)c2n1 | 132 to 134 °C
CCOC(=O)C=Cc1cccc(Cl)c1Cl | 69 to 70 °C
CCOC(=O)C1=C(C)Nc2nc(N)nc(N)c2C1c1cccc([N+](=O)[O-])c1 (stereo not given) | 230 °C
CSC1C(=O)Nc2c(Oc3ccccn3)cccc21 (stereo not given) | 140 to 142 °C

Structure (SMILES) | melting point
O=C(Nc1ccc(F)cc1O)c1cc(Cl)c(O)c(Cl)c1 | 223 to 224 °C
O=C(O)CCCc1cc2cc(Cl)ccc2n1S(=O)(=O)c1cccc2ccccc12 | 206 to 210 °C
Nc1cccc(-c2ccc(CCN3CCN(C(=O)COc4ccccc4)CC3)cc2)n1 | 127 to 130 °C
Nc1nc(N)c(-c2cc(Cl)cc(Cl)c2Cl)nc1Br | 222 to 224 °C
CCCCOCCOc1ccc(-c2ccc3c(c2)C=C(C(=O)Nc2ccc(C/C(=N\O)c4nccn4CCC)cc2)CCN3CC(C)C)cc1 | 166 to 168 °C
COc1ccc(C(=O)CCC2OCCO2)cc1OC | 103 to 105 °C
CCCCCCCCCCCCCCC(F)(F)P(=O)(O)O | 66 to 69 °C
O=C(O)CC(=O)Nc1ccccc1C(=O)O | 171 to 173 °C
COc1cc(C)c(S(C)(=O)=O)cc1C(=O)O | 228 °C
CCOC(=O)c1cccc2c1N(CCN1CC=C(c3c[nH]c4cc(F)ccc34)CC1)S(=O)(=O)N(C(C)C)C2 | 95 to 97 °C
O=C(N[C@@H]1CN(C2CCCCC2)C[C@H]1O)c1ccc([N+](=O)[O-])cc1 (relative stereo) | 156 to 157 °C
Clc1cc2c(cc1Cl)C(Cl)Cc1ccccc1S2 (stereo not given) | 130 to 131 °C
CCCSc1sc(C(N)=O)c2c1-c1[nH]ncc1CC2 | 163 to 164 °C
CCCCCCCCCCCCc1ccc(NC(C)=O)c([N+](=O)[O-])c1 | 71 to 73 °C
CCS(=O)(=O)Nc1ccc(F)c([N+](=O)[O-])c1 | 133 to 136 °C
O=C(O)c1cccc(N2CCN(CCc3ccccc3)CC2)c1F | 85.5 to 87.5 °C
CC(C)c1ccc(-c2cc(-c3cccc(C(=O)O)c3)cs2)cc1 | 208 to 209 °C
N#CSc1nc(Cl)ncc1Br | 166 to 170 °C
CONS(=O)(=O)c1c(C)nn(C)c1Cl | 120 to 122 °C
CC(=O)N1CCc2ccc(Cl)c(Cl)c2C1 | 99.5 to 100 °C
CCOc1ccc2[nH]c(=O)n(C(C)(C)CC(C)(C)C)c2c1 | 108 °C
CCOC(=O)c1cc2c(C(F)(F)F)cc(OCC(=O)OC(C)(C)C)cc2n1C | 98 to 100 °C
Cc1nccn1Cc1cnn(-c2ccc(Cl)c(Cl)c2)c1 | 176 to 177 °C
COc1ccc(N2CCN(c3ccc(-n4cnnc4S)cc3)CC2)cc1 | 232 °C
CCOc1ccccc1-c1ncc(C#N)c(=O)[nH]1 | 186 to 187 °C

Structure (SMILES) | melting point
Nc1ccc(-c2nccc3[nH]c(=O)ccc23)cc1 | 309 to 312 °C
NC(=O)c1nccc(-c2ccc(Oc3ccc(F)cc3)cc2)n1 | 180 to 182 °C
C#CCNC(=NCCSCc1ccccn1)NC#N | 124 to 130 °C
CC(C)(OC(=O)c1ccccc1)c1nccc2ccccc12 | 116 to 119 °C
NC(Cc1cc(Cl)c(Sc2ccc(O)c(Cc3ccc(=O)[nH]c3)c2)c(Cl)c1)C(=O)O (stereo not given) | 261 to 264 °C
COc1ccc(C(=CC(=O)N2CCOCC2)c2ccc(NC(=O)NS(=O)(=O)c3ccc(C)cc3)cc2)cc1OC | 220 to 225 °C
COC1C=C(C)C(=O)CC(C)(C)C1OC(=O)c1ccc(N)cc1N (stereo not given) | 178 to 179 °C
CCOCc1cc2ccccc2oc1=Nc1ccccc1 | 71 to 72 °C
OCCCc1cnoc1-c1ccc(Br)cc1 | 72 to 73 °C
CCCCCC(=O)n1c(N)nc2ccccc21 | 200 °C
CCOC(=O)C(=NO)c1cccc(Br)c1 | 113 to 114 °C
OCc1nccc(N2CCCCC2)c1Br | 51 to 53 °C
Cc1cc(N2CCC(=O)CC2)c2cc(C)c(-c3ccc(Cl)cc3Cl)n2n1 | 170 to 171 °C
CC(=O)Nc1ccc(N2CCNC2=O)cc1 | 270 to 273 °C
CC(C)NC(C)C(=O)Nc1cccc2c1C(=O)c1c(NC(=O)C(C)NC(C)C)cccc1C2=O (stereo not given) | 105 to 106 °C
CC1(C)CCn2c(nc(-c3ccncc3)cc2=O)N1 | 345 to 347 °C
COc1cc(C(=O)c2ccnn2C)c(Cl)c(Cl)c1OC | 99.5 to 101 °C
COc1ccc(C(=O)Nc2cccnc2)c2c3cc(Cl)ccc3n(Cc3ccc(F)cc3)c12 | 224 to 228 °C
Cc1cccc(Oc2nc(-c3c[nH]nc3C)cs2)n1 | 138 to 139 °C
CC(C)OC(=O)NC1(c2ccccc2Cl)CCCCC1=O (stereo not given) | 124 to 126 °C
COc1cc([N+](=O)[O-])c2nccc(C)c2c1Oc1cccc(C(F)(F)F)c1 | 206 to 208 °C
O=C(NNS(=O)(=O)c1ccccc1)c1nccc2ccccc12 | 198 to 200 °C
Cc1ccc(-c2cn(C)cc(-c3ccccc3)c2=O)c(C)c1 | 153 to 155 °C
C=CCc1cc(C=O)ccc1O | 66 °C
COc1cc2c(cc1OC)C[C@@H](N1CCN(c3ccccc3OC)CC1)[C@H](O)C2 (relative stereo) | 172 to 174 °C
